Biological target: T1, recombinant human MetAP-2 (Homo sapiens, UniProt P50579)
T1 construct: His tag (N); TEV cleavage site (N); made in house
Assay: Enzymatic activity assay of Methionine aminopeptidase 2 (enzyme coupled assay, Met-Ala-Ser substrate)
Format: biochemical
Settings: recombinant human MetAP-2 (His-Tev-MetAP-2), absorbance at 450 nm, kinetic mode, read-out: MeAP2 IC50
Experimental: The MetAP-2 activity was determined by an enzyme coupled assay using the tripeptide Met-Ala-Ser (MAS) as substrate and recombinant human MetAP-2 (His-Tev-MetAP-2, prepared in-house). The released methionine is converted by L-amino acid oxidase (AAO) to Met ox and hydrogen peroxide is released. In a second step horse radish peroxidase catalyses the oxidation of the leuko dye dianisidine to dianisidine ox with hydrogen peroxide as co-substrate. The produced dianisidine ox was detected photometrically as increase in absorbance at 450 nm. MetAP-2 activity was determined in a kinetic measurement mode. The release of one molecule methionine corresponds to the production of one molecule dianisidine ox. The MetAP-2 enzymatic activity is directly corresponding to the increase in absorbance per time.

T1 sequence (P50579 whole entry): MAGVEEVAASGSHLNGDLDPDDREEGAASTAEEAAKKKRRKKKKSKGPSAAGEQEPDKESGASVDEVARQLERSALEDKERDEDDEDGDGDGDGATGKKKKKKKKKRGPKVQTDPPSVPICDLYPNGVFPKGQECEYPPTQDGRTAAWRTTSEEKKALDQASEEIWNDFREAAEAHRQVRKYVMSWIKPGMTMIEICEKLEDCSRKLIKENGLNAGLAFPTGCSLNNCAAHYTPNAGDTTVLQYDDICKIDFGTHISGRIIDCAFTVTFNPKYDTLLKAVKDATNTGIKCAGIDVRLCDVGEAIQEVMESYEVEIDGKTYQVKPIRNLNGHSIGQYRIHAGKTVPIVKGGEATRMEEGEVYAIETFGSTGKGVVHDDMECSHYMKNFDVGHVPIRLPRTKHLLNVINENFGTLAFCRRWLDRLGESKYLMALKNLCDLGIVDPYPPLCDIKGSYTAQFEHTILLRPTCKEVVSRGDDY

| SMILES | IC50 [nM] |
| --- | --- |
| CP(C)(=O)c1ccc(N2CC[C@](O)(C(=O)NCc3cc(F)cc(F)c3)C2=O)cc1 [Compound 1, (S)-N-(3,5-difluorobenzyl)-1-(4-(dimethylphosphoryl)phenyl)-3-hydroxy-2-oxopyrrolidine-3-arboxamide] | < 1000 |
| CP(C)(=O)c1ccc(N2CC[C@@](O)(C(=O)NCc3cc(F)cc(F)c3)C2=O)cc1 [Compound 1a, (R)-N-(3,5-difluorobenzyl)-1-(4-(dimethylphosphoryl)phenyl)-3-hydroxy-2-oxopyrrolidine-3-car boxamide] | 1000 to 10000 |
| CP(C)(=O)c1cccc(N2CC[C@](O)(C(=O)NCc3cc(F)cc(F)c3)C2=O)c1 [Compound 2, (S)-N-(3,5-difluorobenzyl)-1-(3-(dimethylphosphoryl)phenyl)-3-hydroxy-2-oxopyrrolidine-3-carboxamide] | < 1000 |
| CP(C)(=O)c1cccc(N2CC[C@@](O)(C(=O)NCc3cc(F)cc(F)c3)C2=O)c1 [Compound 2a] | 1000 to 10000 |
| CCP(=O)(CC)c1ccc(N2CC[C@](O)(C(=O)NCc3cc(F)cc(F)c3)C2=O)cc1 [Compound 3, (S)-1-(4-(diethylphosphoryl)phenyl)-N-(3,5-difluorobenzyl)-3-hydroxy-2-oxopyrrolidine-3-c arboxamide] | < 1000 |
| CC(C)P(=O)(c1ccc(N2CC[C@](O)(C(=O)NCc3cc(F)cc(F)c3)C2=O)cc1)C(C)C [Compound 4, (S)-N-(3,5-difluorobenzyl)-1-(4-(diisopropylphosphoryl)phenyl)-3-hydroxy-2-oxopyrrolidine-3-carboxamide] | < 1000 |
| O=C(NCc1cc(F)cc(Cl)c1)[C@@]1(O)CCN(c2ccc(P(=O)(C3CCC3)C3CCC3)cc2)C1=O [Compound 5, (S)-N-(3-chloro-5-fluorobenzyl)-1-(4-(dicyclobutylphosphoryl)phenyl)-3-hydroxy-2-oxopyrr olidine-3-carboxamide] | < 1000 |
| CP(C)(=O)c1ccc(N2CC[C@](O)(C(=O)NCc3cc(F)cc(F)c3)C2=O)cn1 [Compound 6, (S)-N-(3,5-difluorobenzyl)-1-(6-(dimethylphosphoryl)pyridin-3-yl)-3-hydroxy-2-oxopyrrolidine-3-carboxamide] | < 1000 |
| CC(C)P(=O)(c1ccc(N2CC[C@](O)(C(=O)NCc3cc(F)cc(Cl)c3)C2=O)cc1)C(C)C [Compound 7, (S)-N-(3-chloro-5-fluorobenzyl)-1-(4-(diisopropylphosphoryl)phenyl)-3-hydroxy-2-oxopyrr olidine-3-carboxamide] | < 1000 |
| O=C(NCc1cc(F)cc(Cl)c1)[C@@]1(O)CCN(c2ccc(P(=O)(C3CC3)C3CC3)cc2)C1=O [Compound 8, (S)-N-(3-chloro-5-fluorobenzyl)-1-(4-(dicyclopropylphosphoryl)phenyl)-3-hydroxy-2-oxopy rrolidine-3-carboxamide] | < 1000 |
| CP(C)(=O)c1ccc(N2CC[C@](O)(C(=O)NCc3cc(F)cc(Cl)c3)C2=O)cc1 [Compound 9, (S)-N-(3-chloro-5-fluorobenzyl)-1-(4-(dimethylphosphoryl)phenyl)-3-hydroxy-2-oxopyrrolidine-3-carboxamide] | < 1000 |
| O=C(NCc1cc(F)cc(F)c1)[C@@]1(O)CCN(c2ccc(P(=O)(C3CC3)C3CC3)cc2)C1=O [Compound 10, (S)-1-(4-(dicyclopropylphosphoryl)phenyl)-N-(3,5-difluorobenzyl)-3-hydroxy-2-oxopyrrolidine-3-carboxamide] | < 1000 |
| C[Si](C)(C)c1ccc(N2CC[C@](O)(C(=O)NCc3cc(F)cc(F)c3)C2=O)cc1 [Compound 11, (S)-N-(3,5-difluorobenzyl)-3-hydroxy-2-oxo-1-(4-(trimethylsilyl)phenyl)pyrrolidine-3-carbo xamide] | < 1000 |
| O=C(NCc1cc(F)cc(F)c1)[C@@]1(O)CCN(c2ccc3c(c2)C2(CC2)CN3)C1=O [Compound 12, (S)-N-(3,5-difluorobenzyl)-3-hydroxy-2-oxo-1-(spiro[cyclopropane-1,3′-indoline]-5′-yl)pyrr olidine-3-carboxamide] | < 1000 |
| O=C1Nc2ccc(N3CC[C@](O)(C(=O)NCc4cc(F)cc(Cl)c4)C3=O)cc2C12CC2 [Compound 13, (S)-N-(3-chloro-5-fluorobenzyl)-3-hydroxy-2-oxo-1-(2′-oxospiro[cyclopropane-1,3′-indoline]-5′-yl)pyrrolidine-3-carboxamide] | < 1000 |
| O=C1Nc2ccc(N3CC[C@](O)(C(=O)NCc4cc(F)cc(Cl)c4)C3=O)cc2C12CCC2 [Compound 14, (S)-N-(3-chloro-5-fluorobenzyl)-3-hydroxy-2-oxo-1-(2′-oxospiro[cyclobutane-1,3′-indoline]-5′-yl)pyrrolidine-3-carboxamide] | < 1000 |
| O=C1Nc2ccc(N3CC[C@](O)(C(=O)NCc4cc(F)cc(F)c4)C3=O)cc2C12CCCC2 [Compound 15, (S)-N-(3,5-difluorobenzyl)-3-hydroxy-2-oxo-1-(2′-oxospiro[cyclopentane-1,3′-indoline]-5′-yl)pyrrolidine-3-carboxamide] | < 1000 |
| O=C1Nc2ccc(N3CC[C@](O)(C(=O)NCc4cc(F)cc(F)c4)C3=O)cc2C12CC2 [Compound 16, (S)-N-(3,5-difluorobenzyl)-3-hydroxy-2-oxo-1-(2′-oxospiro[cyclopropane-1,3′-indoline]-5′-yl)pyrrolidine-3-carboxamide] | < 1000 |
| O=C1Nc2ncc(N3CC[C@](O)(C(=O)NCc4cc(F)cc(Cl)c4)C3=O)cc2C12CC2 [Compound 17, (S)-N-(3-chloro-5-fluorobenzyl)-3-hydroxy-2-oxo-1-(2′-oxo-1′,2′-dihydrospiro[cyclopropane-1,3′-pyrrolo[2,3-b]pyridine]-5′-yl)pyrrolidine-3-carboxamide] | < 1000 |
| O=C(NCc1cc(F)cc(F)c1)[C@@]1(O)CCN(c2ccc3c(c2)C2(CCC2)S(=O)(=O)N3)C1=O [Compound 18, (S)-N-(3,5-difluorobenzyl)-1-(2,2-dioxido-1H-spiro[benzo[c]isothiazole-3,1′-cyclobutan]-5-y 1)-3-hydroxy-2-oxopyrrolidine-3-carboxamide] | < 1000 |
| O=C(NCc1cc(F)cc(Cl)c1)[C@@]1(O)CCN(c2ccc3c(c2)C2(CCC2)S(=O)(=O)N3)C1=O [Compound 19, (S)-N-(3-chloro-5-fluorobenzyl)-1-(2,2-dioxido-1H-spiro[benzo[c]isothiazole-3,1′-cyclobutan]-5-yl)-3-hydroxy-2-oxopyrrolidine-3-carboxamide] | < 1000 |
| O=C(NCc1cc(F)cc(Cl)c1)[C@@]1(O)CCN(c2ccc3c(c2)C2(CC2)S(=O)(=O)N3)C1=O [Compound 20, (S)-N-(3-chloro-5-fluorobenzyl)-1-(2,2-dioxido-1H-spiro[benzo[c]isothiazole-3,1′-cyclopropan]-5-yl)-3-hydroxy-2-oxopyrrolidine-3-carboxamide] | < 1000 |
| NC(=O)c1cc2cc(N3CCC(O)(C(=O)NCc4cc(F)cc(F)c4)C3=O)sc2[nH]1 (stereo not drawn) [Compound 23, 2-(3-(3,5-difluorobenzylcarbamoyl)-3-hydroxy-2-oxopyrrolidin-1-yl)-6H-thieno[2,3-b]pyrro 1e-5-carboxamide] | < 1000 |

Further lines, results first:

| IC50 [nM] | SMILES |
| --- | --- |
| < 1000 | O=C(NCc1cc(F)cc(Cl)c1)C1(O)CCN(c2ccc(P(=O)(C3CCC3)C3CCC3)cc2)C1=O (racemic) [Compound 5-7] |
| 1000 to 10000 | CCP(=O)(CC)c1ccc(N2CC[C@@](O)(C(=O)NCc3cc(F)cc(F)c3)C2=O)cc1 [Compound 3a] |
| < 1000 | CC(C)P(=O)(c1ccc(N2CC[C@@](O)(C(=O)NCc3cc(F)cc(F)c3)C2=O)cc1)C(C)C [Compound 4a] |
| 1000 to 10000 | O=C(NCc1cc(F)cc(Cl)c1)[C@]1(O)CCN(c2ccc(P(=O)(C3CCC3)C3CCC3)cc2)C1=O [Compound 5a] |
| > 10000 | CP(C)(=O)c1ccc(N2CC[C@@](O)(C(=O)NCc3cc(F)cc(F)c3)C2=O)cn1 [Compound 6a] |
| > 10000 | CC(C)P(=O)(c1ccc(N2CC[C@@](O)(C(=O)NCc3cc(F)cc(Cl)c3)C2=O)cc1)C(C)C [Compound 7a] |
| 1000 to 10000 | O=C(NCc1cc(F)cc(Cl)c1)[C@]1(O)CCN(c2ccc(P(=O)(C3CC3)C3CC3)cc2)C1=O [Compound 8a] |
| < 1000 | CP(C)(=O)c1ccc(N2CC[C@@](O)(C(=O)NCc3cc(F)cc(Cl)c3)C2=O)cc1 [Compound 9a] |
| 1000 to 10000 | O=C(NCc1cc(F)cc(F)c1)[C@]1(O)CCN(c2ccc(P(=O)(C3CC3)C3CC3)cc2)C1=O [Compound 10a] |
| 1000 to 10000 | O=C1Nc2ccc(N3CC[C@@](O)(C(=O)NCc4cc(F)cc(Cl)c4)C3=O)cc2C12CC2 [Compound 13a] |

Reference: patent publication US20240208942A1, “METAP-2 INHIBITORS, PHARMACEUTICAL COMPOSITIONS AND THERAPEUTIC METHODS THEREOF” (CANWELL BIOTECH LIMITED, priority 2021, published 2024)
